Patent publication US9393292B2, “Methods for inducing selective apoptosis” (priority 2010, dated 2016)
Residues, ends and D or L forms follow the SMILES beside them. *: point of attachment. Cbz = O=C(OCc1ccccc1)*; CH2F = FC*

Columns and labels:
CD3+CD19+ T cells = assay: In vitro exposure to AP1903 of patient CD3+CD19+ T cells 5 months after treatment; type: cell-based, human; conditions: patient 2, FACS and quantitative PCR
[1] = cited from earlier work
[2] = test system: iCasp9M.IRES.IL-12-transduced cells; assay: IL-12 ELISA of culture supernatant of iCasp9M.IRES.IL-12-transduced EBV-CTLs after CID; type: cell-based, human; conditions: after 10 nM CID; detection limit 7.8 pg/mL
[3] = test system: iCasp9M.IRES.GFPhigh-transduced CTLs; assay: SCID mouse-human xenograft model: human CD3+/GFP+ T cells in tumors after CID; type: in vivo; conditions: single dose of CID (50 μg AP20187 intraperitoneally); tumors analyzed three days later; versus carrier; listed as dimerizer
[4] = test system: gene-modified allodepleted cells; assay: Induction of apoptosis with AP20187 in gene-modified allodepleted cells (annexin V/7-AAD); type: cell-based, human
Method: (§1) Suicide gene functionality was assessed by adding a small molecule synthetic homodimerizer, AP20187 (Ariad Pharmaceuticals; Cambridge, Mass.), at 10 nM final concentration the day following CD19 immunomagnetic selection. Cells were stained with annexin V and 7-amino-actinomycin (7-AAD)(BD Pharmingen) at 24 hours and analyzed by flow cytometry. Cells negative for both Annexin V and 7-AAD were considered viable, cells that were annexin V positive were apoptotic, and cells that were both annexin V and 7-AAD positive were necrotic. The percentage killing induced by dimerization was corrected for baseline viability as follows: Percentage killing=100%−(% Viability in AP20187-treated cells÷% Viability in nontreated cells).
Cells were maintained in T cell medium containing 50 U/ml IL-2 until 22 days after transduction. A portion of cells was reactivated on 24-well plates coated with […] OKT3 and 1 μg/ml anti-CD28 (Clone CD28.2, BD Pharmingen, San Jose, Calif.) for 48 to 72 hours. CD19 expression and suicide gene function in both reactivated and non-reactivated cells were measured on day 24 or 25 post transduction.

non-transduced cells = assay: Viability of non-transduced cells with AP20187; type: cell-based, human; conditions: non-transduced cells (n=6)
Method: as §1
The day following immunomagnetic selection, 10 nM of the chemical inducer of dimerization, AP20187, was added to induce apoptosis, which appeared within 24 hours. […] Killing efficiency after correction for baseline viability was about 92.9%±3.8%. Large-scale CD19 selection produced cells that were killed with similar efficiency as small-scale selection: mean viability with and without AP20187, and percentage killing, in large and small scale were about 3.9%, about 84.0%, about 95.4% (n=3) and about 6.6%, about 79.3%, about 91.4% (n=5) respectively. […]

[5] = test system: EBV-specific and CMV-specific T cells; assay: Pentamer analysis of virus-specific T cells after AP20187 treatment of allostimulated cells; type: cell-based, human; conditions: 3 weeks post transduction; 4 days allogeneic PBMC; 10 nM AP20187
Method: In some experiments, cells also were cultured for 3 weeks post transduction and stimulated with 30G-irradiated allogeneic PBMC at a responder:stimulator ratio of 1:1. After 4 days of co-culture, a portion of cells was treated with 10 nM AP20187. Killing was measured by annexin V/7-AAD staining at 24 hours, and the effect of dimerizer on bystander virus-specific T cells was assessed by pentamer analysis on AP20187-treated and untreated cells.
An observation of note was that many virus-specific T cells were spared when dimerizer was used to deplete gene-modified cells that have been re-activated with allogeneic PBMC, rather than by non-specific mitogenic stimuli. […] Gene-modified allodepleted cells were maintained in culture for 3 weeks post-transduction to allow transgene down-modulation. Cells were stimulated with allogeneic PBMC for 4 days, following which a portion was treated with 10 nM AP20187. The frequency of EBV-specific T cells (see FIG. 14A) and CMV-specific T cells (see FIG. 14B) were quantified by pentamer analysis before allostimulation, after allostimulation, and after treatment of allostimulated cells with dimerizer. The percentage of virus-specific T cells decreased after allostimulation. Following treatment with dimerizer, virus-specific T cells were partially and preferentially retained.

iCasp9-transduced MSCs = assay: Apoptosis of undifferentiated iCasp9-transduced MSCs after CID (annexin V-PE/7-AAD FACS); type: cell-based, human
Method: Undifferentiated MSCs. The chemical inducer of dimerization (CID) (AP20187; ARIAD Pharmaceuticals, Cambridge, Mass.) was added at 50 nM to iCasp9-transduced MSCs cultures in complete medium. Apoptosis was evaluated 24 hours later by FACS analysis, after cell harvest and staining with annexin V-PE and 7-AAD in annexin V binding buffer (BD Biosciences, San Diego, Calif.). Control iCasp9-transduced MSCs were maintained in culture without exposure to CID.

[6] = test system: iCasp9-ΔCD19-transduced MSCs; assay: In vivo killing of iCasp9-transduced MSCs in SCID mice (luminescence imaging, qPCR); parameters: species or system mouse
[7] = test system: F-Casp9M.I.GFPhigh-transduced T cells; assay: Annexin-V/7-AAD staining and microscopy of F-Casp9M.I.GFPhigh-transduced T cells after CID; type: cell-based, human; conditions: zVAD-fmk 100 μM for 1 hour prior to adding CID
[8] = two injections of 50 μg of CID 24 hours apart, seven days after implantation

SMILES: CC[C@H](C(=O)N1CCCC[C@H]1C(=O)O[C@H](CCc1ccc(OC)c(OC)c1)c1cccc(OCC(=O)NCCNC(=O)COc2cccc([C@@H](CCc3ccc(OC)c(OC)c3)OC(=O)[C@@H]3CCCCN3C(=O)[C@@H](CC)c3cc(OC)c(OC)c(OC)c3)c2)c1)c1cc(OC)c(OC)c(OC)c1 (relative stereo) [AP1903, 2-Piperidinecarboxylic acid, 1-[(2S)-1-oxo-2-(3,4,5-trimethoxyphenyl)butyl]-, 1,2-ethanediylbis[imino(2-oxo-2,1-ethanediyl)oxy-3,1-phenylene[(1R)-3-(3,4-dimethoxyphenyl)propylidene]]ester, [2S-[1(R*),2R[S[S*[1(R*),2R*]]]]]-(9Cl)]
- sensitivity of CD3+CD19+ cells to AP1903 in vitro (CD3+CD19+ T cells): retain sensitivity
- mean Cmax / maximal plasma level ([1]; 0.01-1.0 mg/kg dose range, IV infusion over 2 hours): 0.01 to 1.275 µg/mL
- plasma levels versus dose ([1]; 0.01-1.0 mg/kg): directly proportional to dose
- adverse event considered possibly related to AP1903 ([1]; 1 volunteer at 1.0 mg/kg, 3 minutes after start of infusion, resolved after 32 minutes): vasodilatation
- serious adverse events ([1]; Phase 1 study in volunteers): No serious adverse events
- incidence of adverse events ([1]; following each treatment, all mild in severity): very low

SMILES: CC[C@H](C(=O)N1CCCC[C@H]1C(=O)O[C@H](CCc1ccc(OC)c(OC)c1)c1cccc(OCC(=O)NCC(CNC(=O)COc2cccc([C@@H](CCc3ccc(OC)c(OC)c3)OC(=O)[C@@H]3CCCCN3C(=O)[C@@H](CC)c3cc(OC)c(OC)c(OC)c3)c2)CN(C)C)c1)c1cc(OC)c(OC)c(OC)c1 [AP20187]
- IL-12 in the supernatant [2]: < 7.8 pg/mL
- reduction in the number of human CD3+/GFP+ T cells [3]: more than 99%
- cells remaining viable ([4]; 10 nM AP20187, day after CD19 selection, 24 hours): about 5.5%±2.5%
- apoptosis / elimination of iCasp9-modified T cells after dimerizer (summary statements) ([4]; listed as small-molecule dimerizer): > 90%
- viability with AP20187 (non-transduced cells): about 86%±9%
- viral reactive subpopulations (HLA pentamers, EBV and CMV) [5]: spares (and thereby enriches) viral reactive subpopulations
- annexin positive, iCasp9-CD19-positive cells (iCasp pos/CID) (iCasp9-transduced MSCs; 50 nM CID, 24 hours, FACS example): Ninety-three
- selected cells apoptotic after exposure to CID (iCasp9-transduced MSCs; magnetic immunoselection of iCasp9-CD19-positive cells): More than 95%
- killing / depletion of iCasp9-positive cells (qPCR) ([6]; 1:1 mixture of doubly and singly transduced MSCs, two doses of CID): > 99%
- proportion of surviving iCasp9-positive cells ([6]; mouse, in vivo): 0.7 % of the original population
- luminescence signal of MSCs transduced with iCasp9 [6, 8]: quickly killed
- luminescence signal of cells negative for iCasp9 [6, 8]: not affected

SMILES: COC(=O)C[C@H](NC(=O)[C@H](C)NC(=O)[C@@H](NC(=O)OCc1ccccc1)C(C)C)C(=O)CF [zVAD-fmk] (Cbz-Val-Ala-Asp(OMe)-CH2F)
- CID-induced apoptosis [7]: inhibited
